Here are results for 90 compounds from a melting point compilation (Tetko et al.; mined from patent text by program, amines drawn as free bases though some values may be those of a salt).

The structures appear in SMILES notation.

The compound `O=C1c2ccc(-c3nnn[nH]3)cc2C(=O)c2cc(N3CCCCC3)ccc21` returned a melting point of 297 to 298 °C.
The same measure for `COC(=O)c1cc(OC)cc(C(=O)OC)c1`: 108 to 109 °C; for `O=C1NC(c2ccccc2)C(C(=O)NCCO[N+](=O)[O-])O1` (stereo not given): 122 to 124 °C.
The same measure for `CCc1cccc(C)c1CNc1cc(OC)nc2c1nc(C)n2C`: 165 to 166 °C.
`Cc1cscc1-c1nc(-c2c(F)cccc2Cl)nn1C` had a melting point of 153 to 155 °C.
The same measure for `CCCC(CCC)N1Cc2c(C(=O)O)cc(N(C)S(C)(=O)=O)cc2C1=O`: 206 °C; for `N#Cc1ccc(S(=O)(=O)n2ccc3ccccc32)cc1C#N`: 171 to 173 °C.
In the case of `CN(C)c1ccc(C(=O)C(O)c2cccc(F)c2)cc1` (stereo not given) it was 147 to 149 °C.
The same measure for `COC(=O)C1=C(N)NC(C)=C([N+](=O)[O-])C1c1ccccc1S(=O)(=O)CCCCCl` (stereo not given): 218 °C; for `CN(C(=O)Nc1ccc(Cl)c(Cl)c1)S(=O)(=O)C(C)(C)C`: 116 °C; for `O=C(O)CCNC1CCCN(c2ccc3c(C(=O)NCC45CC6CC(CC(C6)C4)C5)c(Cl)ccc3n2)C1` (stereo not given): 176 to 189 °C.
In turn, `O=c1[nH]c2cc(Cl)ccc2n1CCO` showed a melting point of 176 to 178 °C.
The same measure for `O=S1N=C(NCCCN(Cc2ccccc2)c2ccccn2)C(NCc2cccnc2)=N1` (stereo not given): 114 to 116 °C.
In the case of `CCCC(=O)Nc1ccc(O)c(-c2ccno2)c1` it was 238 °C; in that of `CCOc1cc(N)c(Cl)cc1C(=O)NCC1CN(Cc2ccccc2Cl)C(C)(C)CO1` (stereo not given), 181 to 184 °C; in that of `CCCCc1nc2ccn(Cc3ccccc3)c(=O)c2n1Cc1ccc(-c2ccccc2-c2nnn[nH]2)cc1`, 130 °C.
The same measure for `O=S1c2ccccc2-c2[nH]nc(-c3ccccc3)c21` (stereo not given): 222 to 224 °C.
Compound `NS(=O)(=O)OCCOc1ccc(Cl)cc1` displayed a melting point of 117 to 119 °C.
The same measure for `Cc1nc2ccccc2c(NCc2ccccc2)c1C(C)O` (stereo not given): 176 to 177 °C; for `CNC(=O)Nc1scc(C(C)(C)C)c1C#N`: 212 to 214 °C; for `COc1ccc2ccc(OCc3ccc4ccccc4n3)cc2c1`: 113 to 114 °C.
The same measure for `COc1cccc(OC)c1C(=O)Nc1oncc1-c1ccc(C(F)(F)F)cc1`: 199 to 201 °C.
In turn, `Cc1nnc2n1-c1ccccc1C(c1ccccc1)=NC2` gave a melting point of 216 to 218 °C.
The same measure for `CC(CNS(C)(=O)=O)Nc1nc(Cl)ncc1Cl` (stereo not given): 160 °C.
The same measure for `COC(=O)c1cc(Cl)ccc1N(C(C)C)S(=O)(=O)c1ccc(C)cc1`: 114 to 116 °C.
In the case of `CC(C)Oc1ccnc2[nH]ccc12` it was 182 to 184 °C; in that of `CCSc1ccc(NC=O)cc1S(N)(=O)=O`, 127 °C.
As to `COC(=O)Nc1nc2cc(C(N)c3ccccc3)ccc2[nH]1` (stereo not given), the melting point is more than 232 °C.
In the case of `O=c1oc2ccc(-c3ccc(F)cc3F)cc2c(=O)n1-c1ccc(Cl)cc1F` it was 176 to 177 °C.
In the case of `CCCNC(=O)C(C)Cc1ccc2c(c1)c(Cc1ccc(C(=O)O)cc1OC)cn2C(C)C` (stereo not given) it was 103 to 109 °C; in that of `CC(C)(C(=O)Nc1ccc(Cl)cc1)/C(F)=C\F`, 100 °C.
The same measure for `Cn1c(CN2C(=O)C3(COc4cc5c(cc43)OCO5)c3ccccc32)nc2ccccc21` (stereo not given): more than 250 °C; for `Cc1ccn(-c2ccc(C(=O)c3cccc4c3Nc3ncccc3CN4)c(F)c2)n1`: 122 to 125 °C.
`O=C(Nc1ccccc1)c1nc2ccccc2[nH]1` gave a melting point of 201 to 202 °C.
In the case of `COc1nc2cc(Cl)c(Cl)c(-n3c(CN4CCOCC4)nnc3-c3cccnc3)c2nc1OC` it was 178 to 179 °C.
The same measure for `COc1ccc(OC)c(-c2ccc(C)cc2)c1`: 65 to 66 °C; for `O=C1N(Cc2ccco2)Cc2cnc(Nc3ccccc3)nc2N1c1cccc(CCO)c1`: 195 °C; for `CCCc1nc2c(N)nc3ccc(-c4cccc(NC(C)=O)c4)cc3c2s1`: 242 to 245 °C.
The same measure for `COc1nc(C)c(C)cc1[N+](=O)[O-]`: 71 to 73 °C; for `COC(=O)c1cccc2c(-c3ccc(O)cc3)n(C(C)C)nc12`: 195 to 196 °C.
In turn, `CCOC12CCC(=O)CC13CCN(C)C2Cc1ccc(OC)cc13` (stereo not given) displayed a melting point of 171 to 173 °C.
The same measure for `N#Cc1c(NC(=O)C2CCCCC2)sc(-c2ccccc2)c1[N+](=O)[O-]`: 213 to 214 °C; for `CCOC(=O)CCOc1cccc2c1CCCC2=O`: 57 to 59 °C; for `Nc1c([N+](=O)[O-])cc(F)c(Cl)c1Br`: 146 to 147 °C.
In the case of `O=C(CC(=O)c1ccc(C(F)(F)F)cc1[N+](=O)[O-])c1ccccc1` it was 101 to 103 °C; in that of `CC(C)(C)NS(=O)(=O)c1ccc(-c2cn(-c3cc(-c4ccc(C(F)(F)F)cc4)cc(C(F)(F)F)n3)cn2)s1`, more than 250 °C.
In the case of `CCCN1CC(Nc2ccc3c(c2)CCO3)CC2c3cccc4c3c(cn4C)CC21` (stereo not given) it was 137 to 138 °C.
`CC(C)(c1ccccc1)c1ccc(N)c([N+](=O)[O-])c1` gave a melting point of 92 to 94 °C.
In turn, `CCN(CC)c1ccc(C2(c3ccc(N(CC)CC)cc3N(CC)CC)OC(=O)c3ccccc32)c(C)c1` (stereo not given) displayed a melting point of 149 to 151 °C.
The same measure for `Fc1ccc2nc(S)oc2c1F`: 209 to 210 °C; for `N#Cc1ccc(NN)cc1F`: 136 °C; for `NC(=O)NN=C1c2ncc(Cl)cc2C=CC1Cl` (stereo not given): more than 280 °C.
The same measure for `COc1ccc2c(c1)c(Cc1cc(=O)n(-c3cccc(NC(C)=O)c3)[nH]1)c(C)n2C(=O)c1ccc(Cl)cc1`: 124 to 126 °C; for `Cc1nn(-c2ccc(C(F)(F)F)cn2)cc1COc1cc(C=O)n(C)n1`: 130 to 131 °C; for `O=C(NCCN1CCOCC1)Nc1nc2ccc(OCc3c(Cl)cccc3Cl)cc2[nH]1`: 256 to 259 °C.
The same measure for `O=C1C(CCO)Oc2ccccc2N1Cc1ccc2ccccc2c1` (stereo not given): 81 to 87 °C; for `CCNC(=O)NNC(=O)c1ccc(Cl)cc1`: 237 to 239 °C.
`COc1ccc(C2=NOC(C)(/C(N)=C/OC(C)=O)C2)cc1OC1CCCC1` (stereo not given) yielded a melting point of 131 °C.
For the compound `COc1ccc2c(c1)sc1ncc(C=O)n12`, the melting point fell in the range of 168 to 169 °C.
In the case of `O=C(Nc1cc(S(=O)(=O)NCCO)sc1Cl)c1cnn2c(C(F)F)cc(-c3ccc(C(F)(F)F)cc3)nc12` it was 209 °C.
The same measure for `CC(C)(C)C(NC(=O)Cc1ccc(C#N)cc1)NC(=NC#N)Nc1cccc2ncccc12` (stereo not given): 194 to 196 °C.
The same measure for `O=C(c1ccccc1)N1CCC2(CCc3c2[nH]c2ccccc32)CC1`: 231 to 232 °C; for `COC(=O)Cc1cccc2c1NC(=O)C2`: 156 to 157 °C.
The compound `O=C1C2CCCCN2C(=O)N1c1ccc([N+](=O)[O-])c2ccccc12` (stereo not given) registered a melting point of 190 to 192 °C.
The same measure for `N#Cc1ccc(-c2ccc(-c3ccc(C#N)cc3)cc2)cc1`: 299 to 300 °C.
In the case of `N#Cc1ccc(N(CCCCOc2ccc(O)cc2)n2cnnc2)cc1` it was 156 to 159 °C; in that of `CCCN(C)C(=O)COC1c2ccccc2C(=O)N1c1ccc2ccc(OC)nc2n1` (stereo not given), 160 °C; in that of `O=c1[nH]c2ccc(C3CCNCC3)cc2[nH]1`, 214 to 215 °C.
In the case of `N[C@H]1CC[C@H](Nc2ccnc3cc(C(F)(F)F)ccc23)CC1`, the melting point worked out at 186 °C.
The same measure for `NS(=O)(=O)c1cccc(-c2cc(-c3nc(-c4ccc(C(F)(F)F)nc4)cc(C(F)(F)F)n3)ccn2)c1`: 258 °C; for `CCCO[C@H]1CC[C@H](c2cnc(-c3ccc(C#N)cc3)nc2)CC1`: 114 °C; for `CCn1ncc(C(=O)c2ccc(S(C)(=O)=O)c(C)c2Cl)c1O`: 225 to 227 °C.
`CN1c2ccncc2NC(c2ccccc2)c2cccn21` (stereo not given) registered a melting point of 200 to 203 °C.
In the case of `O=C(O)C1(c2ccc(Nc3nc(C4CCCC4)nc4c3CCC4)cc2)CCCC1` it was 321 to 325 °C; in that of `N#Cc1[nH]c2ccc(Cl)cc2c1-c1ccccc1F`, 185 to 186 °C; in that of `CCCOc1ccccc1-c1nc2c(C(=O)O)cccc2c(=O)[nH]1`, 195 to 197 °C.
For `COc1cc(C(=O)NS(=O)(=O)c2ccccc2C)ccc1Cc1cn(C)c2ccc(C(=O)NC[C@H](C)CC(F)(F)F)cc12`, the melting point lay within 142 to 144 °C.
`CS(=O)(=O)NC(=O)CC1(c2ccc(OCc3ccc4ccccc4n3)cc2)CCCC1` displayed a melting point of 75 °C.
The same measure for `Cc1nc2c(N)nc3ccccc3c2n1OCc1ccccc1[N+](=O)[O-]`: 215 to 217 °C; for `CCCCc1c2c(nc3cc(F)c(F)cc13)-c1cc3c(c(=O)n1C2)COC(=O)CC3(O)CC` (stereo not given): more than 275 °C.
In the case of `CC#Cc1ncn2c1CN(C)C(=O)c1ccccc1-2` it was 206 to 207 °C.
`NC1CN(c2c(F)cc3c(=O)c(C(=O)O)cn(C4CC4)c3c2F)CC12OCCO2` (stereo not given): the melting point was in the range of 224 to 226 °C.
In the case of `COc1cccc2c1OCN(CCc1ccc(C)cc1)C2` it was 58 to 63 °C; in that of `CCCc1c(OCCCCCCc2cc(C)c(O)c(O)c2C)ccc(C(=O)O)c1O`, 170 to 171 °C; in that of `COc1cc2cn(-c3nccs3)nc2cc1OC`, 184 to 187 °C.
The same measure for `CC1(C)CCC(C)(C)c2cc(-c3ccc(O)cc3)ccc21`: 137 to 140 °C.
In the case of `O=[N+]([O-])CS(=O)(=O)c1ccccc1Br` it was 74 to 76 °C; in that of `CCOC(=O)C(Cc1ccc(C(C)C)cc1)C(=O)N[C@@H](CC(C)C)C(=O)OC(C)(C)C` (stereo not given in full), 68 to 73 °C; in that of `C=CCOC(=O)c1ccc(CC(=O)Nc2ccc3c(c2)C(C)(C)CCC3(C)C)cc1`, 49 to 50 °C.
`COc1ccc2c(c1)[C@H](CO)OC2=O` displayed a melting point of 137 to 140 °C.

A word on the melting point: it is the temperature of the solid-liquid transition.
